# Literature values, collected in paper PMC3657752 (Inflammatory bowel diseases, 2011).
# Tests used:
# [1] = tested on: colorectal, colon, and breast cancer models
# [2] = tested on: Experimental Autoimmune Encephalomyelitis (EAE) model; details: promoting permissive remyelination of spinal cord
smiles,measurement,setting,value
CCN(CC)CCNc1ccc2ncn3c4ccc(O)cc4c(=O)c1c23 [Symadex],"activity in models of colorectal, colon, and breast cancer",[1],demonstrated activity
same,activity in EAE model,[2],active
